Experimental data from patent US7812036B2, “Androgens” (N.V. Organon, priority 2004, dated 2010).

These compounds were tested against T1, human androgen receptor (Homo sapiens, UniProt P10275) (assay: Androgenic activity (potency) in vitro bioassay, CHO-AR-pMMTV-LUC 1G12-A5-CA cells, luciferase reporter). Conditions: CHO cells stably transfected with human androgen receptor and MMTV-luciferase reporter; in the presence of 0.1 μmol/l onapristone; potencies expressed as percentage of DHT activity (maximal efficacy with 100 nmol/l DHT set as 100%).
T1 construct: expressed in transfected cells; host or cells: Chinese hamster ovary (CHO) cells, line CHO-AR-pMMTV-LUC 1G12-A5-CA
T1 sequence (P10275 1-920): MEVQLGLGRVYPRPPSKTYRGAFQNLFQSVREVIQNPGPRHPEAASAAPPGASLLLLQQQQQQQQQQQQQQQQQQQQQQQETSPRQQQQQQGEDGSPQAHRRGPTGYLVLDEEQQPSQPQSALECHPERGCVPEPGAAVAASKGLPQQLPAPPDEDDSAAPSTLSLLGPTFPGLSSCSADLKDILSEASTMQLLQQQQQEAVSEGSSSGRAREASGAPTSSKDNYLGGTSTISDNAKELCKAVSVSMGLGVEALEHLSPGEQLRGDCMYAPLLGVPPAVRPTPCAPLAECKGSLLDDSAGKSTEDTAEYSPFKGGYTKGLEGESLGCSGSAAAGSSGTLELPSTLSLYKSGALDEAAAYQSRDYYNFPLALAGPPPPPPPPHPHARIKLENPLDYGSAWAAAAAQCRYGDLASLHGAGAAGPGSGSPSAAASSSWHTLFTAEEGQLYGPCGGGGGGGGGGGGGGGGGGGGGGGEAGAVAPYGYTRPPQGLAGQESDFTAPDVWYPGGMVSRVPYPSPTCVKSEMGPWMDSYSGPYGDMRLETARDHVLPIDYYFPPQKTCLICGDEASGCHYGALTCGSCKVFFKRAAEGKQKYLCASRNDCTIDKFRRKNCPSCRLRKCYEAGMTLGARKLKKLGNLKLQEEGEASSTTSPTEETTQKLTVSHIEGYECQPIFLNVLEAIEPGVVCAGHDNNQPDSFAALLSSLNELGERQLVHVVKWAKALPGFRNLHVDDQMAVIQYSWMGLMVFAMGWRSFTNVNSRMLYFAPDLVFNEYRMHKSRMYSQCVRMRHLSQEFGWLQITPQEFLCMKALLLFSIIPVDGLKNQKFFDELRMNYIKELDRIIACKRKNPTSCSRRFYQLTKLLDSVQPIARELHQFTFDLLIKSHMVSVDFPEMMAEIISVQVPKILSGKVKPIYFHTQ
Format: cell-based
Procedure: The androgenic activity (potency) of the compounds of the invention was determined in an in vitro bioassay of Chinese hamster ovary (CHO) cells stably transfected with the human androgen receptor expression plasmid and a reporter plasmid in which the MMTV promoter is linked to the luciferase reporter gene. The cell line CHO-AR-pMMTV-LUC 1G12-A5-CA is described in Schoonen et al. (J. Steroid Biochem. Molec. Biol. 2002; 74: 213-222). The androgen receptor activity of compounds was determined in the presence of 0.1 μmol/l onapristone. The maximal efficacy in the presence of 100 nmol/1 DHT was set as 100%. The potencies are expressed as percentage of DHT activity.

In order of rising “Potency (%)” value:
1. CNc1ccc2c(Sc3ccccc3C(C)=O)cn(Cc3cc(F)cc(F)c3)c2c1 [Example 8, 1-{2-[1-(3,5-Difluoro-benzyl)-6-methylamino-1H-indol-3-ylsulfanyl]-phenyl}-ethanone]  0.2%
2. CNc1ccc2c(Sc3ccccc3[N+](=O)[O-])cn(Cc3ccccc3F)c2c1 [Example 5b]  0.4%
3. CNc1ccc2c(Sc3ccccc3C(=O)OC)cn(Cc3cc(F)cc(F)c3)c2c1 [Example 9]  0.7%
4. CNc1ccc2c(Sc3ccccc3[N+](=O)[O-])cn(Cc3cccc(C(F)(F)F)c3)c2c1 [Example 5q, Methyl-[3-(2-nitro-phenylsulfanyl)-1-(3-trifluoromethyl-benzyl)-1H-indol-6-yl]-amine]  1.0%
5. CNc1ccc2c(Sc3ccccc3C#N)cn(Cc3ccccn3)c2c1 [Example 7, 2-(6-Methylamino-1-pyridin-2-ylmethyl-1H-indol-3-ylsulfanyl)-benzonitrile]  1.1%
6. CN(C)c1ccc2c(Sc3ccccc3[N+](=O)[O-])cn(Cc3ccccn3)c2c1 [Example 19c, Dimethyl-[3-(2-nitro-phenylsulfanyl)-1-pyridin-2-ylmethyl-1H-indol-6-yl]-amine]  1.2%
7. CNc1ccc2c(Sc3ccccc3[N+](=O)[O-])cn(Cc3cccc(Cl)c3)c2c1 [Example 5p, [1-(3-Chloro-benzyl)-3-(2-nitro-phenylsulfanyl)-1H-indol-6-yl]-methyl-amine]  1.3%
8. CNc1ccc2c(Sc3ccccc3[N+](=O)[O-])cn(Cc3ncccn3)c2c1 [Example 5f, Methyl-[3-(2-nitro-phenylsulfanyl)-1-pyrimidin-2-ylmethyl-1H-indol-6-yl]-amine]  1.8%
9. CNc1ccc2c(S(=O)(=O)c3ccccc3[N+](=O)[O-])cn(Cc3ccccn3)c2c1 [Example 14, Methyl-[3-(2-nitro-phenylsulfonyl)-1-pyridin-2-ylmethyl-1H-indol-6-yl]-amine]  1.9%
10. C=CCNc1ccc2c(Sc3ccccc3[N+](=O)[O-])cn(Cc3cc(F)cc(F)c3)c2c1 [Example 19b]  2.4%
11. CN(C)c1ccc2c(Sc3ccccc3[N+](=O)[O-])cn(Cc3cccnc3)c2c1 [Example 19e, Dimethyl-[3-(2-nitro-phenylsulfanyl)-1-pyridin-3-ylmethyl-1H-indol-6-yl]-amine]  2.6%
12. CN(C)c1ccc2c(Sc3ccccc3[N+](=O)[O-])cn(Cc3cc(F)cc(F)c3)c2c1 [Example 18]  2.7%
13. CCNc1ccc2c(Sc3ccccc3[N+](=O)[O-])cn(Cc3cc(F)cc(F)c3)c2c1 [Example 19a, [1-(3,5-Difluoro-benzyl)-3-(2-nitro-phenylsulfanyl)-1H-indol-6-yl]-ethyl-amine]  2.7%
14. CNc1ccc2c(Sc3ccccc3[N+](=O)[O-])cn(Cc3ncco3)c2c1 [Example 5m, Methyl-[3-(2-nitro-phenylsulfanyl)-1-oxazol-2-ylmethyl-1H-indol-6-yl]-amine]  3.2%
15. CNc1ccc2c([S+]([O-])c3ccccc3[N+](=O)[O-])cn(Cc3ccc(F)cc3)c2c1 (stereo not shown) [Example 5d]  4.3%
16. CNc1ccc2c(Sc3ccccc3CO)cn(Cc3cc(F)cc(F)c3)c2c1 [Example 10]  4.3%
17. CNc1ccc2c(Sc3ccccc3[N+](=O)[O-])cn(Cc3cscn3)c2c1 [Example 5l, Methyl-[3-(2-nitro-phenylsulfanyl)-1-thiazol-4-ylmethyl-1H-indol-6-yl]-amine]  4.8%
18. CNc1ccc2c(Sc3ncccc3[N+](=O)[O-])cn(Cc3cc(F)cc(F)c3)c2c1 [Example 12, [1-(3,5-Difluoro-benzyl)-3-(3-nitro-pyridin-2-ylsulfanyl)-1H-indol-6-yl]-methyl-amine]  5.7%
19. CNc1ccc2c(Sc3ccccc3[N+](=O)[O-])cn(Cc3cc(C#N)cc(C#N)c3)c2c1 [Example 5s, 5-[6-Methylamino-3-(2-nitro-phenylsulfanyl)-indol-1-ylmethyl]-isophthalonitrile]  5.9%
20. CNc1ccc2c(Sc3ccccn3)cn(Cc3cc(F)cc(F)c3)c2c1 [Example 11, [1-(3,5-Difluoro-benzyl)-3-(pyridin-2-ylsulfanyl)-1H-indol-6-yl]-methyl-amine]  6.6%
21. CCNc1ccc2c(Sc3ccccc3[N+](=O)[O-])cn(Cc3ccccn3)c2c1 [Example 19d, Ethyl-[3-(2-nitro-phenylsulfanyl)-1-pyridin-2-ylmethyl-1H-indol-6-yl]-amine]  6.7%
22. CNc1ccc2c(Sc3ccccc3[N+](=O)[O-])cn(Cc3ccccc3)c2c1 [Example 5a, [1-Benzyl-3-(2-nitro-phenylsulfanyl)-1H-indol-6-yl]-methyl-amine]  9.2%
23. CNc1ccc2c(Sc3ccccc3[N+](=O)[O-])cn(Cc3ccccn3)c2c1 [Example 2, Methyl-[3-(2-nitro-phenylsulfanyl)-1-pyridin-2-ylmethyl-1H-indol-6-yl]-amine]  9.9%
24. CNc1ccc2c(Sc3ccccc3C#N)cn(Cc3cc(F)cc(F)c3)c2c1 [Example 6]  10.5%
25. CNc1ccc2c(Sc3ccccc3[N+](=O)[O-])cn(Cc3cccc(C#N)c3)c2c1 [Example 5r, 3-[6-Methylamino-3-(2-nitro-phenylsulfanyl)-1-indol-1-ylmethyl]-benzonitrile]  11.4%
26. CNc1ccc2c(Sc3ccccc3[N+](=O)[O-])cn(Cc3ccon3)c2c1 [Example 5k, [1-Isoxazol-3-ylmethyl-3-(2-nitro-phenylsulfanyl)-1H-indol-6-yl]-methyl-amine]  11.9%
27. CNc1ccc2c(Sc3ccccc3[N+](=O)[O-])cn(Cc3cccc(F)c3)c2c1 [Example 5c, [1-(3-Fluoro-benzyl)-3-(2-nitro-phenylsulfanyl)-1H-indol-6-yl]-methyl-amine]  13.3%
28. CNc1ccc2c(Sc3ccccc3[N+](=O)[O-])cn(Cc3cccnc3)c2c1 [Example 3, Methyl-[3-(2-nitro-phenylsulfanyl)-1-pyridine-3-ylmethyl-1H-indol-6-yl]-amine]  13.4%
29. CNc1ccc2c(Sc3ccccc3[N+](=O)[O-])cn(Cc3cocn3)c2c1 [Example 5j, Methyl-[3-(2-nitro-phenylsulfanyl)-1-oxazol-4-ylmethyl-1H-indol-6-yl]-amine]  14.8%
30. CNc1ccc2c(Sc3ccccc3[N+](=O)[O-])cn(Cc3cc(F)cc(F)c3)c2c1 [Example 1]  15.0%
31. CNc1ccc2c(Sc3ccccc3[N+](=O)[O-])cn(Cc3ccco3)c2c1 [Example 5h, [1-Furan-2-ylmethyl-3-(2-nitro-phenylsulfanyl)-1H-indol-6-yl]-methyl-amine]  16.5%
32. CNc1ccc2c(Sc3ccccc3[N+](=O)[O-])cn(Cc3ccoc3)c2c1 [Example 5i, [1-Furan-3-ylmethyl-3-(2-nitro-phenylsulfanyl)-1H-indol-6-yl]-methyl-amine]  17.9%
33. CNc1ccc2c(S(=O)(=O)c3ccccc3[N+](=O)[O-])cn(Cc3cc(F)cc(F)c3)c2c1 [Example 13, [1-(3,5-Difluoro-benzyl)-3-(2-nitro-benzenesulfonyl)-1H-indol-6-yl]-methyl-amine]  18.9%
34. CNc1ccc2c(Sc3ccccc3[N+](=O)[O-])cn(Cc3ccno3)c2c1 [Example 5n, [1-Isoxazol-5-ylmethyl-3-(2-nitro-phenylsulfanyl)-1H-indol-6-yl]-methyl-amine]  19.4%
35. CNc1ccc2c(Sc3ccccc3[N+](=O)[O-])cn(Cc3cncnc3)c2c1 [Example 5g, Methyl-[3-(2-nitro-phenylsulfanyl)-1-pyrimidin-5-ylmethyl-1H-indol-6-yl]-amine]  21.6%
36. CNc1ccc2c(Sc3ccccc3[N+](=O)[O-])cn(Cc3ccncc3)c2c1 [Example 5e, Methyl-[3-(2-nitro-phenylsulfanyl)-1-pyridin-4-ylmethyl-1H-indol-6-yl]-amine]  35.1%
37. N#CCNc1ccc2c(Sc3ccccc3[N+](=O)[O-])cn(Cc3cc(F)cc(F)c3)c2c1 [Example 20, [1-(3,5-Difluoro-benzyl)-3-(2-nitro-phenylsulfanyl)-1H-indol-6-ylamino]-acetonitrile]  40.2%
